In patent publication US20160100579A1, “NEMATICIDAL N-(2-SUBSTITUTED 2-PHENYLETHYL)CARBOXAMIDES AND N-(2-SUBSTITUTED 2-PHENYLETHYL)-THIOCARBOXAMIDES” (priority 2013, published 2016):

Columns and labels:
[1] = Measurement of log P values by HPLC on reversed phase columns (EEC directive 79/831 Annex V.A8; methods [a] pH 2.3, [b] pH 2.7, [c] pH 7.8); format: physicochemical
Procedure: Measurement of log P-values:
Measurement of log P values was performed according EEC directive 79/831 Annex V.A8 by HPLC (High Performance Liquid Chromatography) on reversed phase columns with the following methods:
^[a] Measurement was done at pH 2.3 with 0.1% phosphoric acid and acetonitrile as eluent with a linear gradient from 10% acetonitrile to 95% acetonitrile.
^[b] measurement of LC-MS was done at pH 2.7 with 0.1% formic acid in water and with acetonitrile (contains 0.1% formic acid) as eluent with a linear gradient from 10% acetonitrile to 95% acetonitrile.
^[c] Measurement with LC-MS was done at pH 7.8 with 0.001 molar ammonium hydrogen carbonate solution in water as eluent with a linear gradient from 10% acetonitrile to 95% acetonitrile.
Calibration was done with not branched alkan2-ones (with 3 to 16 carbon atoms) with known log P-values (measurement of log P values using retention times with linear interpolation between successive alkanones).. lambda-maX-values were determined using UV-spectra from 200 nm to 400 nm and the peak values of the chromatographic signals.

[2] = system: Haemonchus contortus; test: Haemonchus contortus - Test (HAEMCO); format: in vivo; conditions: after 5 days, 100% = all larvae killed
Procedure: Haemonchus contortus—Test (HAEMCO)
Solvent: dimethyl sulfoxide
To produce a suitable preparation of active compound, 10 mg of active compound are dissolved in 0.5 ml solvent, and the concentrate is diluted with “Ringer's solution” to the desired concentration.
Approximately 40 larvae of the red stomach worm (Haemonchus contortus) are transferred into a test tube containing compound solution.
After 5 days percentage of larval mortality is recorded. 100% efficacy means all larvae are killed, 0% efficacy means no larvae are killed.

[3] = method [b]: LC-MS, pH 2.7, 0.1% formic acid in water / acetonitrile
[4] = method [c]: LC-MS, pH 7.8, 0.001 molar ammonium hydrogen carbonate / acetonitrile
[5] = method [b]: LC-MS at pH 2.7, 0.1% formic acid in water / acetonitrile
[6] = method [c]: LC-MS at pH 7.8, 0.001 molar ammonium hydrogen carbonate in water / acetonitrile

Row | logP [1, 3] | log P [1, 5] | log P [1, 6] | Compound | also measured
1 | – | 3.76^[b] | 3.71^[c]; | COC(c1ccc(Cl)cc1Cl)C1(NC(=O)c2ccccc2Cl)CC1 (stereo not shown) [Compound 154] | –
2 | – | 4.35^[b] | 4.39^[c]; | CCOC(c1ccc(Cl)cc1Cl)C(C)NC(=O)c1ccccc1Cl (stereo not shown) [Compound 201] | –
3 | – | 4.43^[b] | 4.39^[c]; | CCOC(c1ccc(Cl)cc1Cl)C(C)NC(=O)c1ccccc1Br (stereo not shown) [Compound 200] | –
4 | – | 5.42^[b] | 5.34^[c]; | COC(c1ccc(Cl)cc1Cl)C(C)(C)N(C)C(=O)c1ccccc1C(F)(F)F (stereo not shown) [Compound 182] | –
5 | – | 3.76^[b] | – | COC(CN(C(=O)c1cccnc1Cl)C1CC1)c1ccc(Cl)cc1Cl (stereo not shown) [Compound 167] | –
6 | – | 3.46^[b] | – | COC(c1ccc(Cl)cc1Cl)C1(NC(=O)c2ccnn2C(F)F)CC1 (stereo not shown) [compound 121] | –
7 | – | 4.14^[b] | 4.13^[c]; | CCOC(c1ccc(Cl)cc1Cl)C(C)NC(=O)c1c(F)cccc1F (stereo not shown) [Compound 196] | –
8 | – | 2.25^[b] | 2.23^[c]; | COC(c1ccc(F)cc1)C(C)NC(=O)c1cccnc1Cl (stereo not shown) [Compound 184] | –
9 | 4.57^[b] | – | – | COC(c1ccc(Cl)cc1Cl)C(C)NC(=O)c1c(F)c(C)nn1C(F)F (stereo not shown) [compound 114] | –

The remaining lines, values behind:

Row | Compound | logP [1, 3] | log P [1, 5] | log P [1, 6] | also measured
10 | COC(c1ccc(Cl)cc1Cl)C(C)NC(=O)c1sccc1C (stereo not shown) [Compound 58] | 4.05^[b] | – | – | logP [1, 4]: 4.02^[c];; activity (efficacy: larval mortality) ([2]; 100 ppm): 80%
11 | COC(CNC(=O)c1ccsc1Cl)c1ccc(Cl)cc1 (stereo not shown) [Compound 70] | 3.15^[b] | – | – | logP [1, 4]: 3.13^[c];; activity (efficacy: larval mortality) ([2]; 100 ppm): 100%
12 | COC(c1ccc(Cl)cc1Cl)C(C)NC(=O)c1cccnc1Cl (stereo not shown) [Compound 34] | – | – | – | activity (efficacy: larval mortality) ([2]; 100 ppm): 90%
13 | COC(CNC(=O)c1ccoc1I)c1ccc(Cl)cc1 (stereo not shown) [Compound 71] | 2.92^[b] | – | – | logP [1, 4]: 2.90^[c];; activity (efficacy: larval mortality) ([2]; 100 ppm): 90%
14 | COC(c1ccc(Cl)cc1)C(C)NC(=O)c1ccccc1C(F)F (stereo not shown) [Compound 136] | – | 3.46^[b] | 3.42^[c]; | activity (efficacy: larval mortality) ([2]; 20 ppm): 80%
15 | COC(c1ccc(Cl)cc1)C(C)NC(=O)c1ccoc1C (stereo not shown) [Compound 59] | 3.21^[b] | – | – | activity (efficacy: larval mortality) ([2]; 100 ppm): 90%
16 | COC(CNC(=O)c1cccnc1C(F)(F)F)c1cc(Cl)cc(Cl)c1 (stereo not shown) [Compound 119] | – | 3.19^[b] | – | –
17 | COC(c1ccccc1Cl)C(C)NC(=O)c1ccccc1C(F)(F)F (stereo not shown) [Compound 145] | – | 3.45^[b] | 3.41^[c]; | –
18 | COC(CNC(=O)c1c(C(F)F)nn(C)c1Cl)c1cc(Cl)cc(Cl)c1 (stereo not shown) [Compound 40] | 3.55^[b] | – | – | –
19 | COC(c1ccc(Cl)cc1)C(C)NC(=O)c1ccccc1I (stereo not shown) [Compound 137] | – | 3.44^[b] | 3.42^[c]; | –
20 | COC(c1ccc(Cl)cc1Cl)C1(NC(=O)c2ccccc2C)CC1 (stereo not shown) [Compound 153] | – | 3.75^[b] | 3.72^[c]; | –
21 | COC(c1cc(Cl)cc(Cl)c1)C(C)NC(=O)c1cccnc1C(F)(F)F (stereo not shown) [Compound 96] | 3.52^[b] | – | – | –
22 | CCC(NC(=O)c1cccnc1Cl)C(OC)c1ccc(Cl)cc1Cl (stereo not shown) [Compound 89] | 3.33^[b] | – | – | –
23 | CCC(NC(=O)c1c(C(F)F)nn(C)c1Cl)C(OC)c1ccc(Cl)cc1Cl (stereo not shown) [Compound 48] | 4.18^[b] | – | – | –
24 | COC(c1ccc(Cl)cc1Cl)C(C)(C)NC(=O)c1occc1Br (stereo not shown) [Compound 80] | 4.59^[b] | – | – | logP [1, 4]: 4.37^[c];
25 | COC(c1ccc(Cl)cc1Cl)C(C)(C)NC(=O)c1c(F)cccc1F (stereo not shown) [Compound 77] | 4.29^[b] | – | – | logP [1, 4]: 4.24^[c];
26 | COC(c1ccc(Cl)cc1)C(C)NC(=O)c1ccsc1 (stereo not shown) [Compound 62] | 2.84^[b] | – | – | –
27 | COC(c1ccc(Cl)cc1Cl)C1(NC(=O)c2c(C(F)F)nn(C)c2Cl)CC1 (stereo not shown) [Compound 50] | 3.70^[b] | – | – | –
28 | COC(c1ccccc1Cl)C(C)NC(=O)c1ccccc1I (stereo not shown) [Compound 146] | – | 3.44^[b] | 3.40^[c]; | –
